Here are results for 15 compounds from patent US8183254B2, “Inhibitors of JNK” (Roche Palo Alto LLC, priority 2008, dated 2012).

In one series the target is Human JNK2α2 (Homo sapiens, UniProt P45984). The series is described as follows: JNK assay in vitro (phosphorylation of GST-ATF2 with [γ-33P] ATP), JNK2. Type of series: biochemical. To be noted: Km concentrations of ATP and substrate. The protocol:
(§1) JNK activity was measured by phosphorylation of GST-ATF2 (19-96) with [γ-^33P] ATP. […] Human JNK2α2 assay contains 1 nM enzyme, 1 μM ATF2, 8 μM ATP with 1 uCi [γ-^33P] ATP. Human JNK1α1 assay contains 2 nM enzyme, 1 μM ATF2, 6 μM ATP with 1 μCi [γ-^33P] ATP. Human JNK3 Upstate Biotech #14-501M) assay contains 2 nM enzyme, 1 μM ATF2, 4 μM ATP with 1 μCi [γ-^33P] ATP. The enzyme assay was carried out in the presence or absence of several compound concentrations. JNK and compound were pre-incubated for 10 min., followed by initiation of the enzymatic reaction by adding ATP and the substrate. The reaction mixture was incubated at 30° C. for 30 min. At the end of incubation, the reaction was terminated by transferring 25 μl of the reaction mixture to 150 μl of 10% glutathione Sepharose® slurry (Amersham # 27-4574-01) containing 135 mM EDTA. The reaction product was captured on the affinity resin, and washed on a filtration plate (Millipore, MABVNOB50) with phosphate buffered saline for six times to remove free radionucleotide. The incorporation of ^33P into ATF2 was quantified on a microplate scintillation counter (Packard Topcount). Compound inhibition potency on JNK was measured by IC50 value generated from ten concentration inhibition curves fitted into the 3-parameter model: % inhibition=Maximum/(1+(IC50/[Inhibitor])^slope). Data were analyzed on Microsoft Excel for parameter estimation.

The target of another series is Human JNK1α1 (Homo sapiens, UniProt P45983). The series is described as follows: JNK assay in vitro (phosphorylation of GST-ATF2 with [γ-33P] ATP), JNK1. The series is classed as biochemical. Conditions: Km concentrations of ATP and substrate. The protocol: as §1
Chain of Human JNK1α1 (P45983 1-384 isoform P45983-2): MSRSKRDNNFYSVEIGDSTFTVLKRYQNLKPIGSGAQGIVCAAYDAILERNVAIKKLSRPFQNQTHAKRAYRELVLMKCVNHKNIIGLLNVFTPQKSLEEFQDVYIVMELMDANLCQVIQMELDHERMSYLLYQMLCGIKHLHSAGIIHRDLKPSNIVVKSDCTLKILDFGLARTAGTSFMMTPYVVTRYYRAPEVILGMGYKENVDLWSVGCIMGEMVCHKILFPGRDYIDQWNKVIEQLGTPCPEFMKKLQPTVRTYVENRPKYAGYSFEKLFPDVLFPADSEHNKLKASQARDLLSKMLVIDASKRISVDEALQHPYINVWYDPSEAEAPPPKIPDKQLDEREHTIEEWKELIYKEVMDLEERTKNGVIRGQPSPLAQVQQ
For series [1], the system named is TNFα-induced IL-6 production. The series is described as follows: Rat in vivo TNFα-induced IL-6 production assay. Conditions: oral gavage 30 min prior to TNF-α challenge, plasma IL-6 90 min after challenge, female Wistar-Han rats. The protocol:
Female Wistar-Han rats procured from Charles River Laboratories were allowed to acclimate for one week prior to use and achieve an approximate body weight of 101-130 g. Rats were administered test compound (N=8 per compound) via oral gavage 30 min prior to an intraperitoneal challenge of 0.5 μg recombinant rat TNF-α (Biosource). Blood was collected via cardiocentesis 90 min after TNF-α challenge. Plasma was prepared using lithium heparin separation tubes (BD microtainer) and frozen at −80° C. until analyzed. IL-6 levels were determined using a rat specific IL-6 ELISA kit (Biosource). The percent inhibition and ED50 values (calculated as the dose of compound at which […] is 50% of the control value) were determined.

Chain of Human JNK2α2 (P45984 whole entry): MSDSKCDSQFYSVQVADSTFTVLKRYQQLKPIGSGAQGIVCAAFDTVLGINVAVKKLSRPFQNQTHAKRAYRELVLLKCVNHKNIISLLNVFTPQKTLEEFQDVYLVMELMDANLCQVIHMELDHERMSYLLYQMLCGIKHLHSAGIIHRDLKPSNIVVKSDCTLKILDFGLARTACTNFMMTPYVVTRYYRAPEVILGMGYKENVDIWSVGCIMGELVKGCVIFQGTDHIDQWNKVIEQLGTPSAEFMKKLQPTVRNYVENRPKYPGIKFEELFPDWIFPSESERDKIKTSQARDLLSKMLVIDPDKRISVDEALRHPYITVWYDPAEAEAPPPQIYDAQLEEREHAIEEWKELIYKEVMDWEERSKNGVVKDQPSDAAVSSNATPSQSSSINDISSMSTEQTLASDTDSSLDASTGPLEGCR

As for `CN[C@H](C(=O)OC1CCN(C(=O)[C@H]2CC[C@H](Nc3nccc(-n4ccc5c(OCCCS(C)(=O)=O)cccc54)n3)CC2)CC1)C(C)C` (stereo in doubt) [Compound I-15, (R)-3-Methyl-2-methylamino-butyric acid 1-(4-{4-[4-(3-methanesulfonyl-propoxy)-indol-1-yl]-pyrimidin-2-ylamino}-cyclohexanecarbonyl)-piperidin-4-yl ester], the melting point lay within 105 to 107 °C. The compound also yielded an IC50 against Human JNK2α2 of 40.5 nM. The compound also came in with an IC50 on Human JNK1α1 of 10 nM.

Regarding `C[C@H](N)C(=O)OC1CCN(C(=O)[C@H]2CC[C@H](Nc3nccc(-n4ccc5c(OCCCS(C)(=O)=O)cccc54)n3)CC2)CC1` [Compound I-1], the melting point fell in the range of 202.2 to 203.2 °C. On Human JNK2α2, half-maximal inhibition (IC50) was put at 40.8 nM. This compound registered an IC50 against Human JNK1α1 of 9.4 nM.

As to `CC(C)(N)C(=O)OC1CCN(C(=O)[C@H]2CC[C@H](Nc3nccc(-n4ccc5c(OCCCS(C)(=O)=O)cccc54)n3)CC2)CC1` [Compound I-2, 2-Amino-2-methyl-propionic acid 1-(4-{4-[4-(3-methanesulfonyl-propoxy)-indol-1-yl]-pyrimidin-2-ylamino}-cyclohexanecarbonyl)-piperidin-4-yl ester], the melting point was in the range of 219 to 220 °C. In addition, the midpoint of inhibition against Human JNK2α2, the IC50, lay at 34.7 nM. At Human JNK1α1, this compound registered an IC50 of 6.8 nM.

`CC[C@H](C)[C@H](N)C(=O)OC1CCN(C(=O)[C@H]2CC[C@H](Nc3nccc(-n4ccc5c(OCCCS(C)(=O)=O)cccc54)n3)CC2)CC1` [Compound I-4, (2S,3S)-2-Amino-3-methyl-pentanoic acid 1-(4-{4-[4-(3-methanesulfonyl-propoxy)-indol-1-yl]-pyrimidin-2-ylamino}-cyclohexanecarbonyl)-piperidin-4-yl ester] had a melting point of 137 to 138 °C. For the same compound, the midpoint of inhibition against Human JNK2α2, the IC50, lay at 51.9 nM. The compound also came in with an IC50 against Human JNK1α1 of 11.6 nM.

The compound `CS(=O)(=O)CCCOc1cccc2c1ccn2-c1ccnc(N[C@H]2CC[C@H](C(=O)N3CCC(OC(=O)[C@@H]4CCCN4)CC3)CC2)n1` [Compound I-5, (S)-Pyrrolidine-2-carboxylic acid 1-(4-{4-[4-(3-methanesulfonyl-propoxy)-indol-1-yl]-pyrimidin-2-ylamino}-cyclohexanecarbonyl)-piperidin-4-yl ester] registered a melting point of 147 to 148 °C. The compound also came in with an IC50 at Human JNK2α2 of 27.4 nM. This compound also showed an IC50 at Human JNK1α1 of 7.4 nM.

For the compound `CC(C)[C@H](N)C(=O)OC1CCN(C(=O)[C@H]2CC[C@H](Nc3nccc(-n4ccc5c(OCCCS(C)(=O)=O)cccc54)n3)CC2)CC1` [Compound I-6, (S)-2-Amino-3-methyl-butyric acid 1-(4-{4-[4-(3-methanesulfonyl-propoxy)-indol-1-yl]-pyrimidin-2-ylamino}-cyclohexanecarbonyl)-piperidin-4-yl ester], the melting point was 163 to 164 °C. On Human JNK2α2, the IC50 was found to be 40.2 nM. For the same compound, on Human JNK1α1, the IC50 was 10.5 nM.

`CN1CCC[C@@H]1C(=O)OC1CCN(C(=O)[C@H]2CC[C@H](Nc3nccc(-n4ccc5c(OCCCS(C)(=O)=O)cccc54)n3)CC2)CC1` [Compound I-7, (R)-1-Methyl-pyrrolidine-2-carboxylic acid 1-(4-{4-[4-(3-methanesulfonyl-propoxy)-indol-1-yl]-pyrimidin-2-ylamino}-cyclohexanecarbonyl)-piperidin-4-yl ester] had a melting point of 127 to 128 °C. For the same compound, the IC50 on Human JNK2α2 came to 55 nM. The compound also had a concentration for half-maximal inhibition (IC50) on Human JNK1α1 of 15 nM.

Compound `CN(C)CC(=O)OC1CCN(C(=O)[C@H]2CC[C@H](Nc3nccc(-n4ccc5c(OCCCS(C)(=O)=O)cccc54)n3)CC2)CC1` [Compound I-8, Dimethylamino-acid acid 1-(4-{4-[4-(3-methanesulfonyl-propoxy)-indol-1-yl]-pyrimidin-2-ylamino}-cyclohexanecarbonyl)-piperidin-4-yl ester] came in with a melting point of 177 to 178 °C. For the same compound, on Human JNK2α2, the IC50 worked out at 67.6 nM. In addition, the “IL-6 Inhibition” value in series [1] (dose 10 mg/Kg) was determined as 28.9%. The “IL-6 Inhibition” value in series [1] (dose 30 mg/Kg) stood at 40.2%. The IC50 against Human JNK1α1 was found to be 23.8 nM.

As for `CN[C@@H](C)C(=O)OC1CCN(C(=O)[C@H]2CC[C@H](Nc3nccc(-n4ccc5c(OCCCS(C)(=O)=O)cccc54)n3)CC2)CC1` [Compound I-9, (S)-2-methylamino-propionic acid 1-(4-{4-[4-(3-methanesulfonyl-propoxy)-indol-1-yl]-pyrimidin-2-ylamino}-cyclohexanecarbonyl)-piperidin-4-yl ester], the melting point was 182 to 183 °C. Moreover, the midpoint of inhibition on Human JNK2α2, the IC50, lay at 50.9 nM. Moreover, the “IL-6 Inhibition” value in series [1] (dose 10 mg/Kg) is reported as 28.1%. Moreover, the “IL-6 Inhibition” value in series [1] (dose 30 mg/Kg) was 49.1%. This compound gave an IC50 against Human JNK1α1 of 15.3 nM.

Consider `CC[C@H](C)[C@@H](N)C(=O)OC1CCN(C(=O)[C@H]2CC[C@H](Nc3nccc(-n4ccc5c(OCCCS(C)(=O)=O)cccc54)n3)CC2)CC1` [Compound I-10, (2R,3S)-2-Amino-3-methyl-pentanoic acid 1-(4-{4-[4-(3-methanesulfonyl-propoxy)-indol-1-yl]-pyrimidin-2-ylamino}-cyclohexanecarbonyl)-piperidin-4-yl ester], for which the melting point lay within 150 to 200 °C.

Turning to `CC[C@@H](C)[C@@H](N)C(=O)OC1CCN(C(=O)[C@H]2CC[C@H](Nc3nccc(-n4ccc5c(OCCCS(C)(=O)=O)cccc54)n3)CC2)CC1` [Compound I-11, (2R,3R)-2-Amino-3-methyl-pentanoic acid 1-(4-{4-[4-(3-methanesulfonyl-propoxy)-indol-1-yl]-pyrimidin-2-ylamino}-cyclohexanecarbonyl)-piperidin-4-yl ester], the melting point was 147 to 148 °C. This compound also came in with an IC50 against Human JNK2α2 of 115 nM. 34.7 nM corresponded to half-maximal inhibition on Human JNK1α1 (IC50).

The compound `COP(=O)(OC)OC1CCN(C(=O)[C@H]2CC[C@H](Nc3nccc(-n4ccc5c(OCCCS(C)(=O)=O)cccc54)n3)CC2)CC1` [Compound I-12, Phosphoric acid 1-(4-{4-[4-(3-methanesulfonyl-propoxy)-indol-1-yl]-pyrimidin-2-ylamino}-cyclohexanecarbonyl)-piperidin-4-yl ester dimethyl ester] showed a melting point of 135 to 136 °C. On Human JNK2α2, this compound showed an IC50 of 162 nM. On Human JNK1α1, this compound displayed an IC50 of 48.1 nM.

The compound `CS(=O)(=O)CCCOc1cccc2c1ccn2-c1ccnc(N[C@H]2CC[C@H](C(=O)N3CCC(OP(=O)(O)O)CC3)CC2)n1` [Compound I-13] had a melting point of 201.3 to 208.8 °C. For the same compound, the IC50 against Human JNK2α2 is 56.8 nM. Also, the IC50 on Human JNK1α1 worked out at 10.8 nM.

Consider `CS(=O)(=O)CCCOc1cccc2c1ccn2-c1ccnc(N[C@H]2CC[C@H](C(=O)N3CCC(OC(=O)CCC(=O)O)CC3)CC2)n1` [Compound I-14], for which the melting point fell in the range of 214.2 to 217.7 °C. For the same compound, the IC50 against Human JNK2α2 came out at 67.9 nM. At Human JNK1α1, this compound had an IC50 of 27.9 nM.

In turn, `CN1CCC[C@H]1C(=O)OC1CCN(C(=O)[C@H]2CC[C@H](Nc3nccc(-n4ccc5c(OCCCS(C)(=O)=O)cccc54)n3)CC2)CC1` [Compound I-27, (S)-1-Methyl-pyrrolidine-2-carboxylic acid 1-(4-{4-[4-(3-methanesulfonyl-propoxy)-indol-1-yl]-pyrimidin-2-ylamino}-cyclohexanecarbonyl)-piperidin-4-yl ester] returned a melting point of 127 to 128 °C. At Human JNK2α2, this compound gave an IC50 of 57.2 nM. The “IL-6 Inhibition” value in series [1] (dose 10 mg/Kg) was found to be 35.8%. Also, the “IL-6 Inhibition” value in series [1] (dose 30 mg/Kg) was found to be 50.7%. This compound registered an IC50 on Human JNK1α1 of 17.6 nM.

The term IC50 denotes the midpoint of a concentration-inhibition curve. A high value points to weaker potency. For orientation: melting point means the temperature of the solid-liquid transition.
